Measurements as given in US20220213030A1, “AMINOGUANIDINE HYDRAZONES AS RETROMER STABILIZERS USEFUL FOR TREATING NEUROLOGICAL DISEASES” (OSPEDALE SAN RAFFAELE SRL, priority 2019, published 2022).

Assays:
Assay type in all cases: in vivo, mouse
Conditions in all cases: 10 mg/kg, day 100
VPS26 = VPS26 MFI in NeuN+ MNs of G93A mice
Description: (§1) We next assayed retromer proteins labelling sections of mice sacrificed at day 100 for VPS35 and NeuN. […] Similarly, we observed that VPS26 levels were increased in G93A mice receiving compound 2a (FIG. 11B). We further corroborated our experimental finding observing that compound 2a increased retromer functionality. The cation-independent mannose 6-phosphate receptor (CI-MPR) is a cargo (Arighi et al., 2004) of the retromer complex that is unstable in VPS26 knockout cells (Seaman 2004). We observed a substantial reduction of CI-MPR MFI levels in MNs of vehicle-treated G93A mice when compared with WT litters (FIG. 11C). […]
(§2) Fluorescence intensity levels of VPS35, VPS26, Sortilin, CTSD and Ubiquitin were calculated using NHI-Image J software (US National Institutes of Health) according to the following protocol: stacks of confocal images were used to generate the maximal projections (Las-X) and then post-processed by NHI-Image J to crop single NeuN^+ MNs from the ventral horn of the spinal cord. We next performed background (calculated on adjacent slices only receiving secondary antibodies) subtraction for each channel, before applying the NHI-Image J mean filter (with radius 2.0 pixels) to calculate mean NeuN fluorescence levels in individual MN. […] On this selected ROI, we calculated mean fluoresce levels (MFI) of each protein.

Golgi apparatus (GM130) = assay: GM130 Golgi labelling in MNs of G93A mice
Description: Ubiquitinated inclusions accumulate in MNs of sALS and fALS patients and in lumbar SCs of ALS mice (Kabashi 2001). High levels of ubiquitinated proteins may represent an overwhelmed response of MNs to protein misfolding and aggregation, as well as a reduction of lysosome functionality. We characterized poly-ubiquitinated proteins in lumbar SCs protein extracts by 10% denaturating PAGE. We included in our experiments protein extracts from Neuro2a cells treated with the proteasome inhibitor Bortezomib (BTZ), able to increase poly-ubiquitination, as an experimental control (FIG. 13A). […] We next scored ubiquitin MFI levels in ventral horn MNs of G93A mice. […] As previously observed in Neuro2a cells, the overexpression of G93A plasmids affects the Golgi apparatus, therefore we asked whether similar alterations can occur in G93A mice by labeling lumbar sections for the cis-Golgi matrix protein GM130.
Sections from mice (frozen cryo sections) or glass covers containing cells were washed three times in PBS 1× (Lonza, 5 min each), and incubated in the following blocking mix: PBS 1×/FBS 10% (Invitrogen), BSA 1 mg/mL (Sigma), TritonX100 0.1% (Sigma), for 1 h at room temperature. Antibodies were diluted in blocking mix and incubated at +4° C. overnight according manufacturer's instructions. […]

Cathepsin D (CTSD) = assay: Cathepsin D expression and maturation in G93A mice
Description: We next investigated Cathepsin D (CTSD) expression and distribution in G93A mice, since it is known that the trafficking of this lysosomal enzyme involves the retromer complex (Seaman 2004). In humans, maturation of CTSD starts with a pre-pro-CTSD that is converted to pro-CTSD (52 kDa) in the endoplasmic reticulum. Recycling of pro-CTSD, and its downstream migration to acidic compartments involves CI-MPR and the retromer pathway. In late endosomes, pro-CTSD is further processed to an intermediate form (48 kDa), and finally converted to mature CTSD (34 kDa) in lysosomes (Laurent-Matha 2006). The inactivation of VPS35 or the knockdown of VPS26 affect the maturation of CTSD. We scored CTSD levels in equal amounts of lumbar SC extracts obtained from vehicle-treated WT, G93A mice receiving the vehicle, and G93A treated with lead 2a. […] We next analyzed CTSD levels in MNs by confocal microscopy. We observed a significant reduction of this protease in MNs of vehicle-treated G93A, while such levels increased in G93A mice treated with compound 2a (FIG. 11F). Similarly, numbers of CTSD^+ puncta in lumbar NeuN^+ MNs were reduced in vehicle-treated G93A MNs, while they increased in compound 2a-treated mice (FIG. 11F).
Fluorescence intensity levels of VPS35, VPS26, Sortilin, CTSD and Ubiquitin were calculated using NHI-Image J software (US National Institutes of Health) according to the following protocol: stacks of confocal images were used to generate the maximal projections (Las-X) and then post-processed by NHI-Image J to crop single NeuN^+ MNs from the ventral horn of the spinal cord. We next performed background (calculated on adjacent slices only receiving secondary antibodies) subtraction for each channel, before applying the NHI-Image J mean filter (with radius 2.0 pixels) to calculate mean NeuN fluorescence levels in individual MN. Using this approach, we established a region of interest (ROI) that gated single MN. On this selected ROI, we calculated mean fluoresce levels (MFI) of each protein.

Sortilin = Sortilin MFI in MNs of G93A mice
Description: as §1, §2

## N=C(N)NN=Cc1cccc(C=NNC(=N)N)c1 [Compound 2a, 1,3-Bis-amino guanidine phenyl hydrazone]
VPS26
  VPS26 levels (MFI): increased
Golgi apparatus (GM130)
  reduction of GM130-covered areas in MNs: substantially reverted
Cathepsin D (CTSD)
  CTSD levels in MNs (confocal MFI): increased
  levels of mature CTSD (WB, lumbar SC extracts): significantly increased
  numbers of CTSD+ puncta in lumbar NeuN+ MNs: increased
Sortilin
  Sortilin MFI levels: significantly increased Sortilin levels
